Results as given in US20230324392A1, “METHODS AND COMPOSITIONS FOR TARGETING CYTOSOLIC DSDNA SIGNALING IN CHROMOSOMALLY UNSTABLE CANCERS” (MEMORIAL SLOAN KETTERING CANCER CENTER, priority 2020, published 2023).

Assays:
B16F10 cells [1] = settings: 1 μM C-176, 48 hours
Experimental: RNA was extracted using the RNeasy Mini Kit (Qiagen, Hilden, Germany, 74104). Non-strand-specific paired end sequencing libraries were generated with TruSeq Stranded mRNA (Illumina, San Diego, CA, 20020594) and sequenced on the Illumina NovaSeq platform. Reads were mapped to the mouse reference GRCm38 with the Broad Picard Pipeline (broadinstitute.github.io/picard/). […] Differential analysis was performed by DESeq2 (v1.24.0) as described by Love, M. I., et al., Genome Biol. 15: 550 (2014), the totality of which is incorporated herein by reference. Gene set enrichment analysis was performed on the normalized reads estimated by DESeq2.

B16F10 cells [2] = assay: Tail vein inoculation of B16F10 cells in C57BL/6 mice, survival; format: in vivo, mouse
Experimental: Animal metastasis studies: Animal experiments were performed in accordance with protocols approved by the MSKCC Institutional Animal Care and Use Committee. […] There was no need to randomize animals. Investigators were not blinded to group allocation. For tail vein injections, 5×10^4 4T1, 2.5×10^4 B16F10, or 10^5 CT26 cells were injected into the tail vein of 6-7-week old BALB/c (4T1 and CT26) or C57BL/6 (B16F10) mice. Metastasis was primarily assessed through overall survival. Overall survival endpoint was met when the mice died or met the criteria for euthanasia under the IACUC protocol. […] Surface lung metastases were assessed at endpoint by direct visual examination after euthanasia at which points lungs were perfused and fixed in 4% paraformaldehyde (4T1 and B16F10 experiments) or stained using India-ink (CT26 experiments). Furthermore, lung metastasis after injection of 4T1 cells was qualitatively assessed using routine hematoxylin and eosin (H&E) staining. […] Primary tumors were surgically excised on day 7 after implantation and metastatic dissemination was assessed by monitoring overall survival or on day 30 through quantification of surface lung metastases upon euthanasia. The length (L) and width (W) of the primary tumors were measured using calipers. Tumor size was calculated according to the following formula: L*W2/2. […]

O=C(Nc1ccc(I)cc1)c1ccc([N+](=O)[O-])o1 [C-176]
baseline expression of inflammation-related genes (Ccl5, Cxcl10, Isg15) (B16F10 cells [1]): significant reductions | expression of STING-dependent genes (B16F10 cells [1]): significantly reduced | gene set enrichment analysis (GSEA) pathways (B16F10 cells [1]): downregulation of pathways related to inflammation and of genes involved in the epithelial-to-mesenchymal transition (EMT) | survival of tumor bearing mice (B16F10 cells [2]; B16F10, C57BL/6, daily IP, vs vehicle): significantly prolonged survival | treated group with no evidence of disease (B16F10 cells [2]; B16F10-bearing animals, at 98 days): ~30%
